The nature of the series: Human HepG2 cell viability assay in 384 well format. In kind it is toxicity, cell-based. On the set-up: dose 125 nL, time 70.5 hour; cytotoxicity at 70.5 h: concentration not given beside the values. The note with it: HepG2 cells, read-out: Inhibition.

Molecules are shown by their SMILES.

With `Cc1n[nH]c2c1C(c1cccnc1)SCC(=O)N2` (stereo not drawn), the cytotoxicity at 70.5 h is -13.5%.

With `O=C(CNC(=O)N1CCN(c2cccc(Cl)c2)CC1)Nc1ccccn1`, the cytotoxicity at 70.5 h was -9.74%.

As for `COc1ccc(CNc2c(N3CCN(C)CC3)c(=O)c2=O)cc1`, the cytotoxicity at 70.5 h was -8.39%.

For the molecule `Cc1c(OCC(=O)NCc2ccccc2Cl)c(=O)ccn1C`, the cytotoxicity at 70.5 h is -23.2%.

For `CC(C)(C)n1ncc2c1NC(=O)CSC2c1ccc2c(c1)OCCO2` (stereo not drawn), the cytotoxicity at 70.5 h is -13%.

For `CC1CC(=O)c2cc(C(=O)N3CCc4ccccc43)c(=O)[nH]c2C1` (stereo not drawn), the cytotoxicity at 70.5 h is -1.11%.

For the molecule `C[C@@H](O)CNC(=O)c1nc(Cc2c(Cl)cccc2Cl)no1`, the cytotoxicity at 70.5 h was -8.72%.

For `CC(C)CCNC(=O)c1csc(NC2CC2)n1`, the cytotoxicity at 70.5 h was -9.92%.

Consider `CCOC(=O)Cc1csc(NC(=O)c2cc(=O)c(OC)c[nH]2)n1`, for which the cytotoxicity at 70.5 h worked out at 2.05%.

Regarding `CC(=O)c1cn(CCC(=O)Nc2c3c(nn2C)CSC3)c2ccccc12`, the cytotoxicity at 70.5 h came to 14.7%.

As to `COCc1nnc(NC(=O)CN2C(=O)c3ccccc3NC2C(C)C)s1` (stereo not drawn), the cytotoxicity at 70.5 h is -12.3%.

As to `O=c1c(NCc2ccco2)c(NCC(O)CN2CCOCC2)c1=O` (stereo not drawn), the cytotoxicity at 70.5 h is -6.2%.

As for `O=c1c(NCCc2ccc(O)cc2)c(NCc2ccncc2)c1=O`, the cytotoxicity at 70.5 h is -0.102%.

`CNc1c(NCc2ccco2)c(=O)c1=O`: the cytotoxicity at 70.5 h is -12.4%.

On to `CC(C)CNC(=O)CNc1c(NCc2ccncc2)c(=O)c1=O`, for which the cytotoxicity at 70.5 h was determined as 4.58%.

Regarding `O=c1c(NCCOCCO)c(N2CCN(c3ccccc3)CC2)c1=O`, the cytotoxicity at 70.5 h was -2.63%.

For the molecule `COCCn1ccc(=O)c(OCC(=O)Nc2cccc(Cl)c2)c1C`, the cytotoxicity at 70.5 h is -8.65%.

Turning to `COc1c[nH]c(C(=O)N2CCN(c3cccc(Cl)c3)CC2)cc1=O`, the cytotoxicity at 70.5 h is -8.19%.

As for `COc1ccc(N2CCN(C(=O)c3cc(=O)c(OC)c[nH]3)CC2)cc1`, the cytotoxicity at 70.5 h was -6.09%.

Consider `Cc1nn(C)cc1C1CC(=O)Nc2c1cnn2C(C)C` (stereo not drawn), for which the cytotoxicity at 70.5 h is -10.7%.

In the case of `Cc1c(C2CC(=O)Nc3c2cnn3C(C)C)cnn1C` (stereo not drawn), the cytotoxicity at 70.5 h is -10.4%.

On to `CN1CCN(CC(CC(=O)Nc2ccc(Cl)cc2)C(=O)O)CC1` (stereo not drawn), for which the cytotoxicity at 70.5 h was -5.4%.

`CN(Cc1ccccc1)C(=O)Cn1nc(N2CCSCC2)ccc1=O`: the cytotoxicity at 70.5 h was -6.57%.

In the case of `Cc1cc(NCCO)nc2[nH]nc(N)c12`, the cytotoxicity at 70.5 h was -14.9%.

As for `COc1ccc(CNC(=O)CCCc2nnc3ccc(OC)nn23)cc1`, the cytotoxicity at 70.5 h was -14.6%.

For `Cn1ccc2c(NC(=O)Cn3ncc4c(c3=O)CCCCC4)cccc21`, the cytotoxicity at 70.5 h is 3.29%.

As to `CC(C)Nc1oc(-c2ccc(S(=O)(=O)N(C)C)o2)nc1C#N`, the cytotoxicity at 70.5 h is -8.63%.

In the case of `Cc1nn2cnnc2c(C)c1CCC(=O)Nc1nnc(C2CC2)s1`, the cytotoxicity at 70.5 h is -10.7%.

In the case of `CC1=Nc2c(c(=O)[nH]n2C2CCCC2)C(c2ccc(O)cc2)S1` (stereo not drawn), the cytotoxicity at 70.5 h is -22.9%.

As to `COc1ccc(C2SC(C)=Nc3c2c(=O)[nH]n3C2CCCC2)cc1O` (stereo not drawn), the cytotoxicity at 70.5 h is -18.9%.

On to `Cn1ccc2c(NC(=O)Cn3ncc4c(c3=O)CCCC4)cccc21`, for which the cytotoxicity at 70.5 h worked out at 6.85%.

Regarding `CC1=Nc2c(c(=O)[nH]n2C(C)C)C(c2cccc(OC(F)F)c2)S1` (stereo not drawn), the cytotoxicity at 70.5 h was -17.2%.

For the molecule `O=C(CCc1ccc(-n2cnnn2)cc1)Nc1nncs1`, the cytotoxicity at 70.5 h was -8.9%.

Turning to `Cn1cc(NC(=O)CNC(=O)N2CCN(c3ccccc3)CC2)cn1`, the cytotoxicity at 70.5 h was -8.66%.

As for `O=C(CC1CCCC1)Nc1ccc(-n2cc(Cl)cn2)nc1`, the cytotoxicity at 70.5 h was -12.3%.

In the case of `COc1cccc2c1ccn2CCNC(=O)CC(C)C`, the cytotoxicity at 70.5 h was -15.1%.

`Cc1nc(C(=O)Nc2cccnc2)c(C(C)C)s1`: the cytotoxicity at 70.5 h is -6.88%.

Consider `COc1ccc2nnc(CCCC(=O)NCc3ccccc3F)n2n1`, for which the cytotoxicity at 70.5 h was 21.9%.

For `COc1ccc2nnc(CCCC(=O)Nc3nc4c(s3)CCC4)n2n1`, the cytotoxicity at 70.5 h is -17.4%.

`O=C(Nc1cccnc1-n1cc(Cl)cn1)C1CCCCC1`: the cytotoxicity at 70.5 h is -26.8%.

With `CC(C)CC1CC(=O)Nc2c1cnn2Cc1ccco1` (stereo not drawn), the cytotoxicity at 70.5 h is -22.8%.

For the molecule `Cc1nn(-c2ncnc3[nH]cnc23)c2c1C(C(C)(C)C)CC(=O)N2` (stereo not drawn), the cytotoxicity at 70.5 h amounted to 0.0512%.

Regarding `O=C(CCc1nc2cc(Br)cnc2[nH]1)NCc1cccnc1`, the cytotoxicity at 70.5 h was -17.1%.

Regarding `O=c1cc2c(nn1CN1CCN(c3ccc(F)cc3)CC1)CCC2`, the cytotoxicity at 70.5 h was -13.2%.

In the case of `O=C(Nc1cccnc1-n1cc(Cl)cn1)C1CC1`, the cytotoxicity at 70.5 h is -27.5%.

Turning to `COc1ncc(CN(CCN(C)C)Cc2ccc(C)s2)cn1`, the cytotoxicity at 70.5 h was 12.8%.

In the case of `Cc1nc2ncnn2c2ccn(-c3cccnc3O)c(=O)c12`, the cytotoxicity at 70.5 h was -15.9%.

`CC(C)c1nc(CN(C)Cc2ncccc2C(=O)O)cs1`: the cytotoxicity at 70.5 h is 4.17%.

Regarding `COCCN(Cc1ccncc1)C(=O)C1COc2c(cccc2OC)C1` (stereo not drawn), the cytotoxicity at 70.5 h was determined as 0.81%.

Turning to `CCc1ccc(C2CC(=O)Nc3c2c(=O)[nH]n3C(C)C)cc1` (stereo not drawn), the cytotoxicity at 70.5 h turned out to be 0.136%.

Turning to `Cc1cnc(N2CCCC(O)C2)nc1-c1ccnn1C` (stereo not drawn), the cytotoxicity at 70.5 h is 10.8%.

Turning to `O=C(Cc1ccc(F)cc1)NCCNc1cc(N2CCCC2)ncn1`, the cytotoxicity at 70.5 h stood at 22.2%.

Consider `Cc1ccc(-c2cc(-c3nc(CN4CCN(C)CC4)no3)n[nH]2)cc1`, for which the cytotoxicity at 70.5 h was found to be 22.4%.

Regarding `Cc1nc(C2CCCN(C(=O)c3ccnc(N(C)C)c3)C2)no1` (stereo not drawn), the cytotoxicity at 70.5 h is -3.61%.

In the case of `Cc1cn2c(n1)CCC(NC(=O)Cn1cncn1)C2` (stereo not drawn), the cytotoxicity at 70.5 h is -5.67%.

On to `Cc1nnc2n1CCN(C(=O)CN(C)Cc1ccccc1)C2`, for which the cytotoxicity at 70.5 h was determined as 19.2%.

On to `NS(=O)(=O)c1ccc(C(=O)N2CCCC2c2ccccc2)o1` (stereo not drawn), for which the cytotoxicity at 70.5 h is -3.63%.

On to `O=C(CS(=O)(=O)Cc1cc(Cl)c2c(c1)OCO2)N1CCCC1`, for which the cytotoxicity at 70.5 h is -0.922%.

`COCCOc1cccc(CNC(=O)CN2CCN(C)CC2C)c1` (stereo not drawn): the cytotoxicity at 70.5 h stood at 10.3%.

Turning to `CC(C)OCCN1CCN(C(C)c2nc(C3CC3)no2)CC1` (stereo not drawn), the cytotoxicity at 70.5 h is 17.9%.

On to `CC(=O)N(C)CCCc1cc(-c2ccccc2)no1`, for which the cytotoxicity at 70.5 h is -4.09%.

For `CC1CN(Cc2cc(C#N)ccc2F)CCN1Cc1nccn1C` (stereo not drawn), the cytotoxicity at 70.5 h was -3.5%.

`CCN1CCOC(CNCc2ccc(OCc3ccccn3)cc2)C1` (stereo not drawn): the cytotoxicity at 70.5 h was -6.17%.

Take `CCOc1ncccc1NC(=O)N1CCCC(CNC(N)=O)C1` (stereo not drawn): the cytotoxicity at 70.5 h was -8.62%.

Turning to `CCOc1ncccc1NC(=O)N1CCC(CN2CCOCC2)CC1`, the cytotoxicity at 70.5 h is -3.11%.

On to `Cc1ccc(C(C)N(C)Cc2nc3c(cnn3C)c(=O)[nH]2)s1` (stereo not drawn), for which the cytotoxicity at 70.5 h was -8.32%.

For the molecule `O=C(Nc1cccc(CNCc2ccccn2)c1)C1CCCC1`, the cytotoxicity at 70.5 h was -4.03%.

With `CC(c1ccccc1Cl)N(C)Cc1nc2c(cnn2C)c(=O)[nH]1` (stereo not drawn), the cytotoxicity at 70.5 h was -2.36%.

Turning to `CN(CC(=O)N1CCC(COc2ccccc2)CC1)c1cnccn1`, the cytotoxicity at 70.5 h is -0.223%.

Turning to `CC(C(=O)NC(N)=O)N(C)CCCc1cc(-c2ccccc2)no1` (stereo not drawn), the cytotoxicity at 70.5 h is -3.63%.

As for `CCc1ccc(S(=O)(=O)Nc2ccc(F)cc2C(=O)O)s1`, the cytotoxicity at 70.5 h came to 5.89%.

Turning to `CC1CN(C)CCN1CC(=O)NCCOc1ccc(Cl)cc1` (stereo not drawn), the cytotoxicity at 70.5 h was 11.2%.

On to `Clc1cc(CN2CCCCC2Cn2cncn2)c2ncccc2c1` (stereo not drawn), for which the cytotoxicity at 70.5 h is -9.86%.

Regarding `CC(C)Oc1ccc(CNC(=O)CN(C)S(C)(=O)=O)cc1F`, the cytotoxicity at 70.5 h was -6.43%.

For the molecule `CC(C)Oc1ccc(CNC(=O)CCN2C(=O)CCC2=O)cc1F`, the cytotoxicity at 70.5 h is -3.49%.

Consider `CCN1CCOC(CNCc2ccccc2OCc2cccnc2)C1` (stereo not drawn), for which the cytotoxicity at 70.5 h amounted to 0.0939%.

For `CC(C)Oc1ccc(CNC(=O)NCc2ccncc2)cc1F`, the cytotoxicity at 70.5 h was -10.8%.

Regarding `CSCC(=O)N1CCCC(c2cc(C)[nH]n2)C1` (stereo not drawn), the cytotoxicity at 70.5 h was -12%.

In the case of `CNc1nc(CNC(=O)Nc2ccc(SC)c(F)c2)cs1`, the cytotoxicity at 70.5 h was -1.49%.

On to `CNc1nc(CNC(=O)Nc2cccc(-n3ccc(C)n3)c2)cs1`, for which the cytotoxicity at 70.5 h came out at 0.812%.

As for `O=C(NCCNc1ccccn1)N1CCC(O)CC1`, the cytotoxicity at 70.5 h amounted to 3.99%.

Turning to `CC(NC(=O)NCCCn1cncn1)c1ccc(C#N)cc1` (stereo not drawn), the cytotoxicity at 70.5 h was determined as 1.25%.

For `Cc1ccc(C(=O)NCCSCc2cccs2)cn1`, the cytotoxicity at 70.5 h amounted to 12.6%.

Regarding `CN(Cc1cnn(C)c1)C(=O)NCCc1ccc2c(c1)OCO2`, the cytotoxicity at 70.5 h is -1.01%.

As to `Cc1ccc(CNC(=O)N(C)Cc2cnn(C)c2)s1`, the cytotoxicity at 70.5 h was -1.07%.

With `CCN(Cc1ccc2c(c1)OCCO2)C(=O)NCCc1cnn(C)c1`, the cytotoxicity at 70.5 h came to 0.223%.

Consider `NC(=O)C1CCN(C(=O)NCCNc2ccccn2)CC1`, for which the cytotoxicity at 70.5 h was -1.19%.

With `CCc1nc(CN2CCN(C(=O)c3csnn3)CC2)cs1`, the cytotoxicity at 70.5 h was -0.125%.

For `Cc1cnn(CCNCc2cc(C#N)ccc2F)c1`, the cytotoxicity at 70.5 h came to 18.7%.

For the molecule `Cc1cc(NC(=O)CN2CCN(c3nc(C)cs3)C(C)C2)on1` (stereo not drawn), the cytotoxicity at 70.5 h was -1.59%.

For `Cc1nn(C)c(C)c1C1CCCN1C(=O)c1ccc(N(C)C)nc1` (stereo not drawn), the cytotoxicity at 70.5 h was -0.439%.

As to `CCCN(C)S(=O)(=O)N1CCCC1c1ccco1` (stereo not drawn), the cytotoxicity at 70.5 h stood at 1.45%.

On to `CN(Cc1cnccn1)S(=O)(=O)N1CCCC1c1ccco1` (stereo not drawn), for which the cytotoxicity at 70.5 h came to 1.01%.

`Cn1cccc1C1CCCCCN1C(=O)c1ccc(NC2CC2)nc1` (stereo not drawn): the cytotoxicity at 70.5 h stood at 12.8%.

`Cc1cnn(CCNCc2cccc(C#N)c2)c1`: the cytotoxicity at 70.5 h came out at 4.17%.

For the molecule `Cc1cnn(CCNCc2ccc(C#N)cc2)c1`, the cytotoxicity at 70.5 h was -1.47%.

With `N#Cc1ccc(CNCCn2cccn2)c(F)c1`, the cytotoxicity at 70.5 h is 13.7%.

Turning to `Cc1csc(N2CCN(CC(=O)NCc3ccccn3)CC2C)n1` (stereo not drawn), the cytotoxicity at 70.5 h is -13.9%.

In the case of `Cc1nc(CN2CCCN(C(=O)c3cnccn3)CC2)cs1`, the cytotoxicity at 70.5 h is -3.13%.

With `Cc1nc(CN2CCCC2c2noc(C3CC3)n2)nc2ccccc12` (stereo not drawn), the cytotoxicity at 70.5 h was 43.5%.

Consider `Cc1cc(C)n(CC2CCCN2C(=O)c2cncnc2C)n1` (stereo not drawn), for which the cytotoxicity at 70.5 h came out at 1.29%.

For `Cn1ccnc1C(NCc1ccc(Br)cc1)c1ccccc1` (stereo not drawn), the cytotoxicity at 70.5 h is -0.0759%.

For `Cc1ccc(CNC(c2ccccc2)c2nccn2C)cc1` (stereo not drawn), the cytotoxicity at 70.5 h was 22.4%.

The record behind these values is ChEMBL document CHEMBL3507680, “University of Dundee, Gates Library screen for HepG2 cell viability”.
